Measured values published in the supplement of paper PMC6045584.
± gives the standard deviation of the averaged measurements.

Each test system was assayed with CN(C)CC[C@H](CSc1ccccc1)Nc1ccc(S(=O)(=O)NC(=O)c2ccc(N3CCN(Cc4ccccc4-c4ccc(Cl)cc4)CC3)cc2)cc1[N+](=O)[O-] [ABT-737] (assay: surviving fraction relative to DMSO-only wells; higher = less growth inhibition). Conditions: 0.5 nM; exposure time: 5 days.
Method in brief: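 For each tumour cell line, log-phase cells were put into 384-well plates at 250–500 cells per well, then after 24 hours exposed continuously for five days to inhibitors at 0.5, 1, 5, 10, 50, 100, 500 and 1000 nM. Viability was assessed by CellTiter-Glo luminescence, with surviving fraction expressed relative to the median of DMSO-only wells. Lines were screened three times and retained only if replicate Pearson r exceeded 0.7 and median Z' exceeded 0.3.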

HMLE3 BREAST and HS578T BREAST are within error of each other in surviving fraction: 1.06 ± 0.073 for the first, 1.08 ± 0.11 for the second.

HMT3552 BREAST and CCK81 LARGE INTESTINE are within error of each other in surviving fraction: 1.01 ± 0.084 for the first, 0.869 ± 0.15 for the second.

First: HCC38 BREAST
Second: HS57T BREAST
The surviving fraction of the first is higher: 1.22 ± 0.037 for the first, 1.03 ± 0.056 for the second.

G292 BONE and HCC70 BREAST are within error of each other in surviving fraction: 1.06 ± 0.043 for the first, 1.07 ± 0.044 for the second.

Same assay, conditions: 1 nM; exposure time: 5 days

Compared with HMLE3 BREAST, HS578T BREAST is higher in surviving fraction: 1.06 ± 0.049 for the first, 1.37 ± 0.23 for the second.

Compared with HMT3552 BREAST, CCK81 LARGE INTESTINE is lower in surviving fraction: 1.02 ± 0.033 for the first, 0.887 ± 0.025 for the second.

Compared with HCC38 BREAST, HS57T BREAST is lower in surviving fraction: 1.23 ± 0.086 for the first, 1.09 ± 0.011 for the second.

G292 BONE and HCC70 BREAST are within error of each other in surviving fraction: 1.03 ± 0.021 for the first, 1.11 ± 0.08 for the second.

Same assay, conditions: 5 nM; exposure time: 5 days

HMLE3 BREAST and HS578T BREAST are within error of each other in surviving fraction: 1.15 ± 0.013 for the first, 1.26 ± 0.15 for the second.

Compared with HMT3552 BREAST, CCK81 LARGE INTESTINE is lower in surviving fraction: 1.04 ± 0.035 for the first, 0.83 ± 0.11 for the second.

HCC38 BREAST and HS57T BREAST are within error of each other in surviving fraction: 1.3 ± 0.23 for the first, 1.08 ± 0.072 for the second.

G292 BONE and HCC70 BREAST are within error of each other in surviving fraction: 1.08 ± 0.014 for the first, 1.1 ± 0.065 for the second.

Same assay, conditions: 10 nM; exposure time: 5 days

HMLE3 BREAST and HS578T BREAST are within error of each other in surviving fraction: 1.17 ± 0.11 for the first, 1.24 ± 0.11 for the second.

HMT3552 BREAST and CCK81 LARGE INTESTINE are within error of each other in surviving fraction: 0.979 ± 0.082 for the first, 0.847 ± 0.077 for the second.

Going from HCC38 BREAST to HS57T BREAST, the surviving fraction falls from 1.31 ± 0.049 to 1.11 ± 0.093.

Compared with G292 BONE, HCC70 BREAST is higher in surviving fraction: 1.02 ± 0.012 for the first, 1.11 ± 0.051 for the second.

Same assay, conditions: 50 nM; exposure time: 5 days

HMLE3 BREAST and HS578T BREAST are within error of each other in surviving fraction: 1.1 ± 0.13 for the first, 1.18 ± 0.073 for the second.

First: HMT3552 BREAST
Second: CCK81 LARGE INTESTINE
The surviving fraction of the first is higher: 1.1 ± 0.036 for the first, 0.859 ± 0.11 for the second.

Compared with HCC38 BREAST, HS57T BREAST is lower in surviving fraction: 1.21 ± 0.11 for the first, 1.04 ± 0.01 for the second.

G292 BONE and HCC70 BREAST are within error of each other in surviving fraction: 1.07 ± 0.022 for the first, 1.06 ± 0.092 for the second.

Same assay, conditions: 100 nM; exposure time: 5 days

HMLE3 BREAST and HS578T BREAST are within error of each other in surviving fraction: 1.17 ± 0.12 for the first, 1.15 ± 0.15 for the second.

Compared with HMT3552 BREAST, CCK81 LARGE INTESTINE is lower in surviving fraction: 1.23 ± 0.038 for the first, 0.724 ± 0.13 for the second.

HCC38 BREAST and HS57T BREAST are within error of each other in surviving fraction: 1.26 ± 0.17 for the first, 1.06 ± 0.066 for the second.

G292 BONE and HCC70 BREAST are within error of each other in surviving fraction: 1.06 ± 0.024 for the first, 1.03 ± 0.078 for the second.

Same assay, conditions: 500 nM; exposure time: 5 days

Compared with HMLE3 BREAST, HS578T BREAST is lower in surviving fraction: 1.17 ± 0.13 for the first, 0.975 ± 0.021 for the second.

Compared with HMT3552 BREAST, CCK81 LARGE INTESTINE is lower in surviving fraction: 1.03 ± 0.06 for the first, 0.678 ± 0.071 for the second.

HCC38 BREAST and HS57T BREAST are within error of each other in surviving fraction: 0.873 ± 0.12 for the first, 0.981 ± 0.039 for the second.

G292 BONE and HCC70 BREAST are within error of each other in surviving fraction: 1.02 ± 0.019 for the first, 1 ± 0.048 for the second.

Same assay, conditions: 1000 nM; exposure time: 5 days

Compared with HMLE3 BREAST, HS578T BREAST is lower in surviving fraction: 1.22 ± 0.1 for the first, 0.955 ± 0.059 for the second.

Going from HMT3552 BREAST to CCK81 LARGE INTESTINE, the surviving fraction falls from 1.17 ± 0.03 to 0.695 ± 0.053.

Going from HCC38 BREAST to HS57T BREAST, the surviving fraction rises from 0.714 ± 0.068 to 0.965 ± 0.018.

Compared with G292 BONE, HCC70 BREAST is higher in surviving fraction: 0.904 ± 0.027 for the first, 0.978 ± 0.032 for the second.
